{"source": "patent US10179789B2", "about": "“Methylenedioxybenzo [I] phenanthridine derivatives used to treat cancer” (Rutgers, The State University of New Jersey, priority 2009, dated 2019)", "key": {"[1]": {"tested_on": "KBH5.0 (variant that overexpresses BCRP)", "experiment": "Cytotoxicity on KBH5.0 (overexpresses BCRP)", "format": "cell-based", "procedure": "(§1) The cytotoxicity was determined using the MTT-microtiter plate tetrazolinium cytotoxicity assay (MTA). The human lymphoblast RPMI 8402 and its camptothecin-resistant variant cell line, CPT-K5 was provided by Dr. Toshiwo Andoh (Aichi Cancer Center Research Institute, Nagoya, Japan). (36) The P388 mouse leukemia cell line and its CPT-resistant TOP1-deficient variant P388/CPT45 (37) were obtained from Michael R. Mattern and Randal K. Johnson (GlaxoSmithKline, King of Prussia, Pa.). The KB3-1 cell line and its multidrug-resistant variant KBV-1 (38) were obtained from K. V. Chin (The Cancer Institute of New Jersey, New Brunswick, N.J.). The KBH5.0 cell line as noted previously (21) was derived from KB3-1 by stepwise selection against Hoechst 33342. The cytotoxicity assay was performed using 96-well microtiter plates. Cells were grown in suspension at 37° C. in 5% CO2 and maintained by regular passage in RPMI medium supplemented with 10% heat inactivated fetal bovine serum, L-glutamine (2 mM), penicillin (100 U/mL), and Streptomycin (0.1 mg/mL). For determination of IC50, cells were exposed continuously for FOUR days to varying concentrations of drug, and MTT assays were performed at the end of the fourth day. […] All assays were performed at least twice in six replicate wells.\n(§2) The cytotoxicity of the representative compounds of the invention were also tested on cell line KB3-1 (parent cell line), KBV-1 (a variant that overexpresses efflux transporter MDR1) and KBH5.0 (a variant that overexpresses BCRP). Differences in the relative cytotoxicity between the parent and variant cell lines may be indicative of a compound that is a substrate for an efflux transporter. […] Accordingly, compounds of the invention of formula I may be useful to treat tumors that are resistant to other anticancer agents, especially anticancer agents that are susceptible to efflux by BCRP (e.g. anthracyclines, mitoxantrone, topotecan, irinotecan, bisanthrone, doxorubicin, daunorubicin, and epirubin."}, "KB3-1 cell line": {"tested_on": "KB3-1 cell line", "experiment": "Cytotoxicity on KB3-1 (parent cell line)", "format": "cell-based", "procedure": "as §1, §2"}, "[2]": {"tested_on": "CPT-K5 (camptothecin-resistant variant of RPMI 8402)", "experiment": "Test B. MTT cytotoxicity assay, CPT-K5", "format": "cell-based, human", "procedure": "(§3) Test B. Cytotoxic Assays (Cancer Cell Lines and Efflux Transporter Cell Lines)\nas §1"}, "[3]": {"tested_on": "P388 mouse leukemia cell line", "experiment": "Test B. MTT cytotoxicity assay, P388", "format": "cell-based", "procedure": "as §3, §1"}, "[4]": {"tested_on": "RPMI 8402 human lymphoblast cells", "experiment": "Test B. MTT cytotoxicity assay, RPMI8402", "format": "cell-based", "procedure": "as §3, §1"}, "[5]": {"tested_on": "KBV-1 (variant that overexpresses efflux transporter MDR1)", "experiment": "Cytotoxicity on KBV-1 (overexpresses MDR1)", "format": "cell-based", "procedure": "as §1, §2"}, "[6]": {"tested_on": "P388/CPT45 (CPT-resistant TOP1-deficient variant of P388)", "experiment": "Test B. MTT cytotoxicity assay, P388/CPT45", "format": "cell-based, mouse", "procedure": "as §3, §1"}, "human topoisomerase I": {"biological_target": "T1, human topoisomerase I (Homo sapiens, UniProt P11387)", "T1 construct": "unnamed fusion partner (recombinant fusion protein, T7 expression system); made in house; host or cells: Escherichia coli", "T1 sequence (P11387 1-765)": "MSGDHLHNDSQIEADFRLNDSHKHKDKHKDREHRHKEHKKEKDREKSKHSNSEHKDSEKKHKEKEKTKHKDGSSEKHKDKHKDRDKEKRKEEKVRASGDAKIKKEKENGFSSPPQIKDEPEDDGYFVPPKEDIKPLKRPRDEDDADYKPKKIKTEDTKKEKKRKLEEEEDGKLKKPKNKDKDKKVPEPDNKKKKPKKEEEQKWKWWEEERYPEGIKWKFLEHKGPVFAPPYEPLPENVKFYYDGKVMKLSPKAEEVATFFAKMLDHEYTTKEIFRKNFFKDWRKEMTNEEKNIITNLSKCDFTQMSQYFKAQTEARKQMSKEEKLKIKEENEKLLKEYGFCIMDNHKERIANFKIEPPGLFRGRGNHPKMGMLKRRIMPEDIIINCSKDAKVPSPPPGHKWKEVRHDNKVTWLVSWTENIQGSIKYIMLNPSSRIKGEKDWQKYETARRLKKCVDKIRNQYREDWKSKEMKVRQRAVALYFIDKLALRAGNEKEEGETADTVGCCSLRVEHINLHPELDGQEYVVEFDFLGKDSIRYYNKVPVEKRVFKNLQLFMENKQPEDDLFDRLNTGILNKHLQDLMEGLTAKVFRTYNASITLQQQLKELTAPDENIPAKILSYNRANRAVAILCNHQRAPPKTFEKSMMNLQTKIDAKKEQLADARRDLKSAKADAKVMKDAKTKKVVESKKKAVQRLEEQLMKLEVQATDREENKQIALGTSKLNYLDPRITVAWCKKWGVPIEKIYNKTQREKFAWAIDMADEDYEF", "experiment": "Test A. Topoisomerase I-mediated DNA cleavage assay", "format": "biochemical", "settings": "Relative Effective Concentration; relative to camptothecin arbitrarily assumed as 0.2; same 10% cleavage on plasmid DNA", "text": "Test A. Topoisomerase I—Mediated DNA Cleavage Assay Human topoisomerase I was expressed in Escherichia coli and isolated as a recombinant fusion protein using a T7 expression system as described previously (31). Plasmid YepG was also purified by the alkali lysis method followed by phenol deproteination and CsCl/ethidium isopycnic centrifugation method as described (32). The 3′ end labeling of the plasmid was accomplished by digestion with a restriction enzyme followed by end filling with Klenow polymerase as previously described (33). The cleavage assays were performed as previously reported (34,35). The drug and the DNA in presence of topoisomerase I was incubated for 30 min at room temperature. The reactions were terminated by the addition of 5 μL of 5% SDS and 1 mg/mL […] with an additional 1 h of incubation at 37° C. […] After development of the gels, typically 24-h exposure was used to obtain autoradiograms outlining the extent of DNA fragmentation. Topoisomerase I-mediated DNA cleavage values are reported as Relative Effective Concentration (REC). […] Results for the assay for representative compounds of the invention of formula I along with comparison compounds are shown in Table 1."}}}
{"smiles": "COc1cc2c(C(=O)NCC(C)(C)N(Cc3ccccc3)Cc3ccccc3)cc3c4cc5c(cc4ncc3c2cc1OC)OCO5", "note": "[Compound 32, N-(2-(Dibenzylamino)-2-methylpropyl)-2,3-dimethoxy-8,9-methylene-dioxybenzo[i]phenanthridine-12-carboxamide]", "values": [{"measurement": "IC50", "setting": "[1]", "value": 600, "unit": "nM"}, {"measurement": "IC50", "setting": "KB3-1 cell line", "value": 20, "unit": "nM"}, {"measurement": "IC50", "setting": "[2]", "value": 5000, "unit": "nM"}, {"measurement": "IC50", "setting": "[3]", "value": 30, "unit": "nM"}, {"measurement": "IC50", "setting": "[4]", "value": 60, "unit": "nM"}, {"measurement": "IC50", "setting": "[5]", "value": 2900, "unit": "nM"}, {"measurement": "IC50", "setting": "[6]", "value": 1300, "unit": "nM"}, {"measurement": "TOP1 Mediated DNA Cleavage (REC Value)", "setting": "human topoisomerase I", "value": 1.5}]}
